The numbers were not newly measured in patent US20220151901A1, “A METHOD OF COLORING KERATINOUS MATERIAL COMPRISING THE USE OF AN ORGANOSILICON COMPOUND, A COLORING COMPOUND, AND A MIXTURE OF SILICONES” (Henkel AG & Co. KGaA, priority 2019, published 2022), which cites them from elsewhere.

For this data set the following is noted: 25° C.

Turning to `Nc1cc(S(=O)(=O)[O-])cc2cc(S(=O)(=O)[O-])c(N=Nc3ccccc3)c(O)c12.[Na+].[Na+]` [Acid Red 33, disodium salt of 5-amino-4-hydroxy-3-(phenylazo)-naphthalene-2,7-disulphonate], the solubility in water was 2500 µg/mL.
For `O=S(=O)([O-])c1ccc(N=Nc2c(O)ccc3ccccc23)cc1.[Na+]` [Acid Orange 7, sodium salt of 4-[(2-hydroxy-1-naphthyl)azo]benzene sulphonate], the solubility in water result is “more than 7 g/L”.
As to `O=C([O-])C1=NN(c2ccc(S(=O)(=O)[O-])cc2)C(=O)C1N=Nc1ccc(S(=O)(=O)[O-])cc1.[Na+].[Na+].[Na+]` (centres unmarked) [Acid Yellow 23, trisodium salt of 4,5-dihydro-5-oxo-1-(4-sulfophenyl)-4-((4-sulfophenyl)azo)-1H-pyrazole-3-carboxylic acid], the “solubility in water (in words)” value was “highly soluble”.
Turning to `CCN(Cc1cccc(S(=O)(=O)[O-])c1)c1ccc(C(=C2C=CC(=[N+](CC)Cc3cccc(S(=O)(=O)[O-])c3)C=C2)c2ccccc2S(=O)(=O)[O-])cc1.[Na+].[Na+]` [Acid Blue 9], the solubility in water entry is “more than 20 % by weight”.
For the compound `O=C([O-])c1c(Cl)c(Cl)c(Cl)c(Cl)c1-c1c2c(Br)cc(=O)c(Br)c-2oc2c(Br)c(O)cc(Br)c12.O=C([O-])c1c(Cl)c(Cl)c(Cl)c(Cl)c1-c1c2c(Br)cc(=O)c(Br)c-2oc2c(Br)c(O)cc(Br)c12.[Na+].[Na+]` [Acid Red 92, disodium salt of 3,4,5,6-tetrachloro-2-(1,4,5,8-tetrabromo-6-hydroxy-3-oxoxanthen-9-yl)benzoic acid], the solubility in water result is on record as “greater than 10 g/L”.
